This note sets out measurements from article PMC7855981, “Rho-Kinase 1/2 Inhibition Prevents Transforming Growth Factor-β-Induced Effects on Pulmonary Remodeling and Repair” (Frontiers in Pharmacology, 2021).

The target of test [1] is T1, ROCK2 (Homo sapiens, UniProt O75116).
T1 construct: GST-tagged 1–552 human ROCK2
As to the kind of experiment: ADP-Glo kinase assay with […] ATP; also KINOMEscan competition at […] ([…] vs CTRL). It is filed as biochemical. For orientation: ADP-Glo first removes unused ATP, then detects ADP through luciferase.

In test [2] the target is T2, ROCK1 (Homo sapiens, UniProt Q13464).
T2 construct: GST-tagged 1–535 human ROCK1
T2 sequence (Q13464 1-535): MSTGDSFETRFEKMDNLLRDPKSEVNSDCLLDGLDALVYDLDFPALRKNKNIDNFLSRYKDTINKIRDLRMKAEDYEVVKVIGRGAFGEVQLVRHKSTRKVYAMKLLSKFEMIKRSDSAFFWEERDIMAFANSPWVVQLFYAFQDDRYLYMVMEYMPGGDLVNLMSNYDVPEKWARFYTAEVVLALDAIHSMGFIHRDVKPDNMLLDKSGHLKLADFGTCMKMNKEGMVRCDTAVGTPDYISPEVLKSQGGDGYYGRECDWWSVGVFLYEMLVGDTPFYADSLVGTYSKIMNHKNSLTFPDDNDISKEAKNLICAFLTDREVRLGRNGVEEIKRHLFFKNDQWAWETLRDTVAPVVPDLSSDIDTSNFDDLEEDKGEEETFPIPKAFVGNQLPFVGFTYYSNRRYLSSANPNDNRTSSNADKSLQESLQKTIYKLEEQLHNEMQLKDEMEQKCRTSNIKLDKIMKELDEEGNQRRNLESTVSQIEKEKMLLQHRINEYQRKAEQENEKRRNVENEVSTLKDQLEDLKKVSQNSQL
The test is described as follows: ADP-Glo kinase assay with […] ATP. It is filed as biochemical.

Test [3] deals with T2, ROCK1. The test is described as follows: ADP-Glo kinase assay with […] ATP; also KINOMEscan competition at […] ([…] CTRL). The class given is biochemical.
Test [4] deals with T1, ROCK2. The test is described as above. The class given is biochemical.
The target in another test is VRK2 (Homo sapiens, UniProt Q86Y07). The test is described as follows: KINOMEscan competition binding, single concentration […] ([…] of control). The following applies: read-out: % CTRL at 100 nM.
Chain of VRK2 (Q86Y07 whole entry): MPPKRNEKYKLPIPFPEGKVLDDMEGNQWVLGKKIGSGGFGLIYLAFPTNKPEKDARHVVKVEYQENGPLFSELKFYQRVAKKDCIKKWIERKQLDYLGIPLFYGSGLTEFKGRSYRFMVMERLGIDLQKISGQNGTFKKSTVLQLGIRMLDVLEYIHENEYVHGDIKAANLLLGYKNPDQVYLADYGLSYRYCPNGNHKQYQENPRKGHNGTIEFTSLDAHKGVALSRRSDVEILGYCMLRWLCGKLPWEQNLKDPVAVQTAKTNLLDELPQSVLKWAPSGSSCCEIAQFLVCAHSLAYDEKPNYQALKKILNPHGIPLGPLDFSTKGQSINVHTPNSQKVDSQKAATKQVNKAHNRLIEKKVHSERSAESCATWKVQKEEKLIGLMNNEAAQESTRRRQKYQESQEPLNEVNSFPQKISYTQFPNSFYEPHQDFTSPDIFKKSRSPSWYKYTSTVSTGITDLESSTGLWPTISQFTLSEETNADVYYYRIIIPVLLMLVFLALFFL

T1 sequence (O75116 1-552): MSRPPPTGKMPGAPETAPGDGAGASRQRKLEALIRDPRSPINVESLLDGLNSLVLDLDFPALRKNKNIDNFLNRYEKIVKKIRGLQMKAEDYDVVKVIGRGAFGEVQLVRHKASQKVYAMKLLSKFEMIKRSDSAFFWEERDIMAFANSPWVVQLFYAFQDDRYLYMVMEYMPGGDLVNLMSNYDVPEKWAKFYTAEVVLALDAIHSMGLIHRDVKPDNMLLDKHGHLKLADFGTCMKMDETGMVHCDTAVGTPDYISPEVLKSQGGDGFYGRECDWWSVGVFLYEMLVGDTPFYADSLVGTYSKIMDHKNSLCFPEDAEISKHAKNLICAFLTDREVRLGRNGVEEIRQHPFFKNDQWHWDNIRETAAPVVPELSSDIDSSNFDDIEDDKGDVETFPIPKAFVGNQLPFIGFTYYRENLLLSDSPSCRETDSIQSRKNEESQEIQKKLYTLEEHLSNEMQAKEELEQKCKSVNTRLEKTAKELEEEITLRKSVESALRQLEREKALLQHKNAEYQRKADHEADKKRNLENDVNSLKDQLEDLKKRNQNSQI

One may read the IC50 as the concentration that inhibits the measured activity by half. With `Cn1cc(C(=O)Nc2cccc(-c3nnc(Nc4ccc5[nH]ncc5c4Cl)s3)c2)cn1` [A11, N-(3-(5-((4-chloro-1H-indazol-5-yl)amino)-1,3,4-thiadiazol-2-yl)phenyl)-1-methyl-1H-pyrazole-4-carboxamide], the IC50 at ROCK2 [1] is 6.1 ± 1.4 nM; against ROCK1 [2], 341 ± 38 nM.

Consider `CCCN[C@H]1CCc2nc(NC(=O)c3cccc([C@@H](C)NC(=O)c4ccc(OC)c(OC)c4)c3)sc2C1` [compound 31, 3,4-dimethoxy-N-((R)-1-(3 - (((S) - 6 - (propylamino) - 4,5,6, 7 tetrahydrobenzo [d]thiazol-2-yl)carbamoyl)phenyl)ethyl) benzamide], for which the values for the half-maximal inhibitory concentration (IC50) at ROCK1 [3] and on ROCK2 [4] were 2.9 ± 0.5 nM and 4 ± 0.6 nM, respectively. Also, the remaining binding at 0.1 µM at VRK2 is 9.3%.
